# Results from patent US8216592B2, “Infection model for developing chemotherapeutic agents” (priority 2007, dated 2012).
# Key:
# ETEC strain H10407 = test: C. elegans/ETEC infection system: screen of chemotherapeutic agents against colonization of the nematode gut; format: in vivo, E. coli; conditions: ETEC H10407-infected C. elegans, 24 hours at 26° C.
# Method: (§1) Nematodes were infected with prototypical ETEC H10407 or control MG1655 strains on NGM agar. After 24 hours of infection, 30 nematodes were harvested and placed in 1 mL M9 buffer (black bars), or M9 buffer supplemented with 100 μg/mL gentamicin (white bars), 50 μg/mL kanamycin (cross-hatched bars), 7 μg/mL heparin (checkered bars), or 0.01% mannose (speckled bars), and incubated at 26° C. for 24 hours. Values represent the means of three replicate assays, and error bars indicate 1 SD.
# (§2) In one embodiment, a C. elegans/ETEC infection system can be used to screen for chemotherapeutic agents able to disrupt colonization of the nematode gut. In another embodiment, a C. elegans/ETEC infection system may be used to test a range of compounds including, for purposes of example only, the bacteriocidal antibiotic gentamicin, bacteriostatic antibiotic kanamycin, heparin, which may disrupt bacterial adherence, and mannose, which inhibits type I fimbria-mediated adherence to host cells. Age-synchronized L4 nematodes were placed on NGM agar inoculated with either strain H10407 or the control MG1655. Twenty-four hours post-infection, 30 nematodes fed each strain were placed in M9 buffer or M9 buffer supplemented with the desired compounds. After an additional 24 hours of incubation at 26° C., nematodes were harvested, washed to remove exterior bacteria, pulverized and plated on selective LB agar.
# After 3 days at 26° C., L4 nematodes were removed from feeding using a platinum wire and placed on rifampin-containing NGM agar plates with pre-grown ETEC and control strains that were incubated at 37° C. overnight. Prior to seeding of C. elegans, NGM and CFA agar plates were shifted to 26° C., the temperature where they remained for the duration of the assay. For the standard plate count assay, nematodes were fed on ETEC and control strains for 24 hours. […]
# [1] = test system: enteropathogenic E. coli (EPEC) strain E2348/69; test: C. elegans infection system: EPEC bacteria recoverable from the nematode gut after treatment; format: in vivo; conditions: EPEC E2348/69-infected C. elegans; gentamicin; data not shown
# Source text: With continued reference to FIG. 4, there was no significant difference in the number of recoverable ETEC bacteria after treatment with any of the other compounds tested. […] The present invention therefore also includes a C. elegans small animal infection model for studying EPEC. Accordingly, a C. elegans infection system could be used to screen for potentially therapeutic chemical agents against multiple E. coli pathotypes.
# control strain MG1655 = test: C. elegans infection system: control strain bacteria recovered from the nematode gut after treatment; format: in vivo, E. coli; conditions: MG1655-fed C. elegans; 100 μg/mL gentamicin, 50 μg/mL kanamycin, 7 μg/mL heparin or 0.01% mannose in M9 buffer, 24 hours at 26° C.; P<0.001 for all compounds tested; FIG. 4
# Method: as §1
# as §2, with “agar. […]” for “agar.”
Substance,"reduction in the number of ETEC bacteria recoverable from the nematode gut (vs M9 buffer), significance (ETEC strain H10407; 100 μg/mL gentamicin, 50 μg/mL kanamycin, 7 μg/mL heparin or 0.01% mannose in M9 buffer, FIG. 4)","size of the reduction in recoverable ETEC bacteria, M9 buffer versus M9 buffer supplemented with gentamicin (ETEC strain H10407; 100 μg/mL gentamicin)","mean number of bacteria recoverable from the nematode gut after incubation (ETEC strain H10407; M9 buffer supplemented with 100 μg/mL gentamicin, FIG. 4)",reduction in the number of EPEC bacteria recoverable from the nematode gut compared to untreated EPEC-infected nematodes [1],"reduction in the number of bacteria recovered from the nematode gut, significance (control strain MG1655)"
gentamicin,significant (P=0.004) reduction,approximately one order of magnitude,1×10^4 CFU per nematode,approximately one order of magnitude,significant reduction
heparin,–,–,–,–,significant reduction
